The text below walks through data of patent publication US8946216B2, “Indazole derivatives useful as ERK inhibitors” (Merck Sharp & Dohme Corp., priority 2010, dated 2015).

In one assay the target is ERK protein (Homo sapiens, UniProt P28482). In words: TdF (Temperature Dependence Fluorescence, thermal shift) assay for ERK. Format: binding. Conditions: read-out: TdF Kd; 3 μM ERK protein, 15, 50 or 100 μM compound, Sypro Orange; Kd calculated from ΔTm; uncertainty estimated ±50%. The text has this: Assays: TdF Assay for ERK
Sequence of ERK protein (P28482 2-360): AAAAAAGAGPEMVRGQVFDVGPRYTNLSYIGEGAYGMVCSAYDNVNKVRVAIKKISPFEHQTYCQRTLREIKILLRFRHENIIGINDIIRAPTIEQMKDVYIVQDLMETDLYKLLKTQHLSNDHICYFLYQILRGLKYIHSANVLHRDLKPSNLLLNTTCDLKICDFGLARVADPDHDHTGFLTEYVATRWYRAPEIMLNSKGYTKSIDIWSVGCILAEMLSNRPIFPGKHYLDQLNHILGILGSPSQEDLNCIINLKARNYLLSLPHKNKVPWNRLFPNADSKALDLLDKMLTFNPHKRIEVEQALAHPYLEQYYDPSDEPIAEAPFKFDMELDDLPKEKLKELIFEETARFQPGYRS
The SAR (Structure Activity Relationship) for ERK ligands covered by this invention was interrogated using the TdF (Temperature Dependence Fluorescence) assay or best known as thermal shift assay. The TdF assay was mainly conducted in the 96-well based CHROMO-4 real time fluorescence plate reader (BioRad). The Sypro Orange (Sigma-Aldrich), environmentally sensitive fluorescence dye, was used to monitor the protein folding-unfolding transition. Protein-ligand binding was gauged by the change (or shift) in the unfolding transition temperature (ΔTm) acquired at protein alone with respect to protein in the presence of ligand of interest.
Compound of interest was first prepared in DMSO stock (typical concentration: 10 mM). Sample of 20 μL was then added into the 96-well PCR plate, where it consisted of 3 μM. […] Final percentage of DMSO resided in the sample was 2%. The sample plate was heated from 30° C. to 90° C. with thermal ramping rate of 1 ° C./min. The fluorescence signals were acquired with excitation and emission wavelengths centered at 490 and 560 nm respectively. The instrument thermal stability was ±0.2° C. The melting temperatures (Tm) for ERK protein under aforementioned conditions occurred at 61.0±0.2° C. and 64.8±0.2° C. respectively.
Theoretical Basis for TdF-based Ligand Binding Affinity Constant
The derivation of TdF-based ligand binding affinity constant (Kd) followed closely those previously formulated by Brandts and Lin [2]. In brief, the binding constant of the ligand at the Tm is expressed as below: […]
where T0 is the midpoint of unfolding for unliganded protein and Tm is the midpoint of unfolding in presence of ligand. [LTm] is free ligand at Tm. The ΔHu and ΔCpu are the enthalpy of unfolding and heat capacity change of unfolding for the protein respectively. Following algorithm derived by Winsor and coworker, the T0, ΔHu and ΔCpu can be determined separately from nonlinear regression fitting the protein alone melting curve:
Where F(T) is the observed fluorescence intensity at any temperature T, Yn and Yu are the predicted fluorescence intensities for fully folded and unfolded protein, respectively; mn and mu are slope correction for changes in Yn and Yu with respect to changes in temperature (analogously replace T0 with Tm in the above equation for liganded protein to yield Tm).
where ΔHL(T) is the van't Hoff enthalpy of ligand binding at temperature T and ΔCpL is the heat capacity upon ligand binding. For simplicity, the ΔCpL and ΔHL(T) were set to zero and −7 kcal/mol respectively. The uncertainty in the calculated ligand binding affinity constant was estimated to be ±50%.

In assay [1] the target is unphosphorylated Mouse ERK2 protein (inactive ERK2) (Mus musculus, UniProt P63085). In words: Coupled ERK2 (cERK) assay, coupled MEK1/ERK2 IMAP. Format: biochemical. As to conditions: 30 min preincubation with inactive ERK2, then activation by human MEK1; 30 μM ATP; fluorescence polarization; read-out: cERK2 IC50. The text has this: • 1. M. W. Pantoliana, E. C. Petrella, J. D. Kwasnoski, V. S. Lobanov, J. Myslik, E. Graf, T. Carver, E. Asel, B. A. Springer, P. Lane, F. R. Salemme, High-density miniaturized thermal shift assays as a general strategy for drug discovery, J. Biomol. Screen 6 (2001) 429-440 • 2. J. F. Brandts, L.-N. Lin, Study of strong to ultratight protein interactions using differential scanning calorimetry, Biochemistry 29 (1990) 6927-6940 • 3. Mayhood, T. W., Windsor, W. T., Ligand binding affinity determined by temperature-dependent circular dichroism: Cyclin-dependent kinase 2 inhibitors, Analytical Biochemistry 345 (2005) 187-197 Coupled ERK2 (cERK) Assay:
14 μl of kinase buffer (10 mM Tris.HCl pH 7.2, 10 mM MgCl2, 0.01% Tween-20, 1 mM DTT) containing 0.4 ng unphosphorylated Mouse ERK2 protein was added to each well of a black 384-well assay plate. […] DMSO concentration during initial incubation is 6.7%. ERK2 activity was determined to be insensitive to DMSO concentrations up to 20%. ERK2 was then activated and it's kinase activity measured by the addition of 10 μl kinase buffer with the following components (final concentration per reaction): 2 ng active (phosphorylated) human MEK1 protein and 4 μM (total) ERK2 IMAP substrate peptides (3.9 μM unlabeled IPTTPITTTYFFFK-CONH2 and 100 nM IPTTPITTTYFFFK(5-carboxyfluorescein)-CONH2) and 30 μM ATP. DMSO concentration during ERK activation was 4%. After one hour, reactions were terminated by addition of 60 μl IMAP detections beads in binding buffer (Molecular Devices). Binding was allowed to equilibrate for 30 minutes before reading the plate on an LJL Analyst Fluorescence Polarization plate reader. […] Active compounds were reconfirmed in an independent assay.
(In general: In fluorescence polarisation assays a small probe gives low polarisation when free and higher when bound to something large.)

In assay [2] the target is fully phosphorylated, active Mouse ERK2 protein (Mus musculus, UniProt P63085). In words: Active ERK2 (aERK) assay, IMAP format. Conditions: 30 min preincubation; 1 μM substrate peptide, 30 μM ATP; fluorescence polarization; read-out: aERK2 IC50. Format: biochemical. How it is done: Active ERK2 (aERK) Assay:
Activated ERK2 activity was also determined in the IMAP assay format using the procedure outlined above. 1 μl of 25× compound was added to 14 μl of kinase buffer containing 0.25 ng fully phosphorylated, active Mouse ERK2 protein. Following a 30 minute incubation, the reactions were initiated by addition of 10 μl of kinase buffer containing 1 μM ERK2 IMAP substrate peptide (0.9 μM unlabeled IPTTPITTTYFFFK--CONH2 and 100 nM IPTTPITTTYFFFK(5-carboxyfluorescein)-CONH2) and 30 μM ATP. Reactions proceeded for 30 minutes before termination by addition of 60 μl IMAP detection beads in binding buffer. Plates were read as above after 30 minute binding equilibration. Active compounds were reconfirmed in an independent assay.

Sequence of fully phosphorylated, active Mouse ERK2 protein (P63085 whole entry): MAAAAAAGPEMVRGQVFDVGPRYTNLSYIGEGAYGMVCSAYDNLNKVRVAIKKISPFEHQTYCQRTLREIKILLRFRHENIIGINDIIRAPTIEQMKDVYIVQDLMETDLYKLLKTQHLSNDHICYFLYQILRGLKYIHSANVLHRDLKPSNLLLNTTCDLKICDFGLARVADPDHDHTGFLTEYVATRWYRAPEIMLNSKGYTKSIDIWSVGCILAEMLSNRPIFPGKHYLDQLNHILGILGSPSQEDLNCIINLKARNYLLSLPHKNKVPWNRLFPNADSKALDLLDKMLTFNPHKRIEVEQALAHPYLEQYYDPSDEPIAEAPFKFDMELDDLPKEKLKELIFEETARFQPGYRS
Sequence of unphosphorylated Mouse ERK2 protein (inactive ERK2) (P63085 whole entry): as above

As to `O=C(Nc1ccc2[nH]nc(-c3ccncc3)c2c1)C1CN(Cc2ccccn2)CCO1` (stereo not drawn) [Compound 5, N-[3-(4-PYRIDINYL)-1H-INDAZOL-5-YL]-4-(2-PYRIDINYLMETHYL)-2-MORPHOLINECARBOXAMIDE], the dissociation constant Kd on ERK protein was 647 nM. The concentration for half-maximal inhibition (IC50) in assay [1] was 2440 nM; in assay [2], 1070 nM.
The like results for `O=C(Nc1ccc2[nH]nc(-c3ccncc3)c2c1)C1CN(Cc2ccccc2Cl)CCS1` (stereo not drawn) [Compound 9, 4-[(2-CHLOROPHENYL)METHYL]-N-[3-(4-PYRIDINYL)-1H-INDAZOL-5-YL]-2-THIOMORPHOLINECARBOXAMIDE] were, in that order, 20 nM, 42.4 nM and 54.2 nM.
In the case of `O=C(Nc1ccc2[nH]nc(-c3ccncc3)c2c1)C1CN(Cc2ccccc2F)CCS1` (stereo not drawn) [Compound 10, 4-[(2-FLUOROPHENYL)METHYL]-N-[3-(4-PYRIDINYL)-1H-INDAZOL-5-YL]-2-THIOMORPHOLINECARBOXAMIDE], at ERK protein, the dissociation constant Kd was 15 nM. Also, the IC50 was found to be 36.4 nM in assay [1] and 77.2 nM in assay [2].
On to `Cc1nc(CN2CCSC(C(=O)Nc3ccc4[nH]nc(-c5ccncc5)c4c3)C2)cs1` (stereo not drawn) [Compound 11, 4-[(2-METHYL-4-THIAZOLYL)METHYL]-N-[3-(4-PYRIDINYL)-1H-INDAZOL-5-YL]-2-THIOMORPHOLINECARBOXAMIDE], for which the Kd on ERK protein was 616 nM. Also, the IC50 in assay [1] is 840 nM; in assay [2], 475 nM.
The matching figures for `O=C(Nc1ccc2[nH]nc(-c3ccncc3)c2c1)C1CNCCO1` (stereo not drawn) [Compound 16, N-[3-(4-PYRIDINYL)-1H-INDAZOL-5-YL]-2-MORPHOLINECARBOXAMIDE]: 13500 nM, 2140 nM and 852 nM.
The matching figures for `O=C(Nc1ccc2[nH]nc(-c3ccncc3)c2c1)C1CNCCS1` (stereo not drawn) [Compound 17, N-[3-(4-PYRIDINYL)-1H-INDAZOL-5-YL]-2-THIOMORPHOLINECARBOXAMIDE]: 5630 nM, 109 nM and 124 nM.
The like results for `Cc1nc(CN2CCOC(C(=O)Nc3ccc4[nH]nc(-c5ccncc5)c4c3)C2)cs1` (stereo not drawn) [Compound 18, 4-[(2-METHYL-4-THIAZOLYL)METHYL]-N-[3-(4-PYRIDINYL)-1H-INDAZOL-5-YL]-2-MORPHOLINECARBOXAMIDE] were, in that order, 571 nM, 1170 nM and 18100 nM.
For the compound `O=C(Nc1ccc2[nH]nc(-c3ccncc3)c2c1)C1CN(Cc2cccnc2)CCO1` (stereo not drawn) [Compound 19, N-[3-(4-PYRIDINYL)-1H-INDAZOL-5-YL]-4-(3-PYRIDINYLMETHYL)-2-MORPHOLINECARBOXAMIDE], the Kd at ERK protein is 517 nM. Moreover, the concentration for half-maximal inhibition (IC50) was 2200 nM in assay [1] and 17000 nM in assay [2].
As for `O=C(Nc1ccc2[nH]nc(-c3ccncc3)c2c1)C1CN(Cc2cccc(Cl)c2)CCO1` (stereo not drawn) [Compound 29, 4-[(3-CHLOROPHENYL)METHYL]-N-[3-(4-PYRIDINYL)-1H-INDAZOL-5-YL]-2-MORPHOLINECARBOXAMIDE], the dissociation constant (Kd) on ERK protein is 141 nM. Moreover, the concentration for half-maximal inhibition (IC50) turned out to be 151 nM in assay [1] and 123 nM in assay [2].
The matching figures for `CSc1ccc(CN2CCOC(C(=O)Nc3ccc4[nH]nc(-c5ccncc5)c4c3)C2)cc1` (stereo not drawn) [Compound 34, 4-[[4-(METHYLTHIO)PHENYL]METHYL]-N-[3-(4-PYRIDINYL)-1H-INDAZOL-5-YL]-2-MORPHOLINECARBOXAMIDE]: 423 nM, 508 nM and 957 nM.
The matching figures for `COc1ccccc1CN1CCOC(C(=O)Nc2ccc3[nH]nc(-c4ccncc4)c3c2)C1` (stereo not drawn) [Compound 35, 4-[(2-METHOXYPHENYL)METHYL]-N-[3-(4-PYRIDINYL)-1H-INDAZOL-5-YL]-2-MORPHOLINECARBOXAMIDE]: 79 nM, 80.9 nM and 37.9 nM.
The matching figures for `O=C(Nc1ccc2[nH]nc(-c3ccncc3)c2c1)C1CN(Cc2ccccc2)CCS1` (stereo not drawn) [Compound 36, 4-(PHENYLMETHYL)-N-[3-(4-PYRIDINYL)-1H-INDAZOL-5-YL]-2-THIOMORPHOLINECARBOXAMIDE]: 62 nM, 166 nM and 1840 nM.
As to `O=C(Nc1ccc2[nH]nc(-c3ccncc3)c2c1)C1CN(Cc2c(F)cccc2Cl)CCO1` (stereo not drawn) [Compound 37, 4-[(2-CHLORO-6-FLUOROPHENYL)METHYL]-N-[3-(4-PYRIDINYL)-1H-INDAZOL-5-YL]-2-MORPHOLINECARBOXAMIDE], the dissociation constant (Kd) on ERK protein was 27 nM. Further, the figures for the IC50 in assay [1] and in assay [2] were 173 nM and 111 nM, respectively.
`O=C(Nc1ccc2[nH]nc(-c3ccncc3)c2c1)C1CN(Cc2cccc(F)c2F)CCO1` (stereo not drawn) [Compound 43, 4-[(2,3-DIFLUOROPHENYL)METHYL]-N-[3-(4-PYRIDINYL)-1H-INDAZOL-5-YL]-2-MORPHOLINECARBOXAMIDE]: the Kd on ERK protein is 214 nM. Further, the IC50 turned out to be 218 nM in assay [1] and 139 nM in assay [2].
The like results for `O=C(Nc1ccc2[nH]nc(-c3ccncc3)c2c1)C1CN(Cc2c(F)cccc2F)CCO1` (stereo not drawn) [Compound 44, 4-[(2,6-DIFLUOROPHENYL)METHYL]-N-[3-(4-PYRIDINYL)-1H-INDAZOL-5-YL]-2-MORPHOLINECARBOXAMIDE] were, in that order, 165 nM, 109 nM and 69.2 nM.
On to `O=C(Nc1ccc2[nH]nc(-c3ccncc3)c2c1)C1CN(Cc2ccc(F)cc2F)CCO1` (stereo not drawn) [Compound 45, 4-[(2,4-DIFLUOROPHENYL)METHYL]-N-[3-(4-PYRIDINYL)-1H-INDAZOL-5-YL]-2-MORPHOLINECARBOXAMIDE], for which the dissociation constant Kd at ERK protein is 80 nM. Further, the IC50 turned out to be 275 nM in assay [1] and 138 nM in assay [2].
The like results for `COc1ccc(F)c(CN2CCOC(C(=O)Nc3ccc4[nH]nc(-c5ccncc5)c4c3)C2)c1` (stereo not drawn) [Compound 46, 4-[(2-FLUORO-5-METHOXYPHENYL)METHYL]-N-[3-(4-PYRIDINYL)-1H-INDAZOL-5-YL]-2-MORPHOLINECARBOXAMIDE] were, in that order, 167 nM, 148 nM and 148 nM.
The like results for `O=C(Nc1ccc2[nH]nc(-c3ccncc3)c2c1)C1CN(Cc2c(F)ccc(Cl)c2F)CCO1` (stereo not drawn) [Compound 47, 4-[(3-CHLORO-2,6-DIFLUOROPHENYL)METHYL]-N-[3-(4-PYRIDINYL)-1H-INDAZOL-5-YL]-2-MORPHOLINECARBOXAMIDE] were, in that order, 223 nM, 452 nM and 581 nM.

As usually defined, the Kd is the equilibrium constant for the complex coming apart. The IC50 is the point on the concentration scale where inhibition reaches its midpoint.
